Reference: patent US20060234971A1 (priority 2005, published 2006)
Where “and” joins values, the source holds several entries; their conditions need not be identical. Equal values may be shown once. Read-outs that look alike come from different tables or passages of the source. Peptide text beside a SMILES is read from it. * marks the point of attachment. Cbz = O=C(OCc1ccccc1)*; CH2F = FC*

What was measured:
[1] = system: C2 production in SMB cells; test: cells; assay type: cell-based, mouse; conditions: for IC50: read-out: concentration producing 50% inhibition of C2 accumulation (IC50)
[2] = system: PrP^Sc accumulation in ScN2a cells; conditions: cited from earlier work
[3] = system: calpain-mediated cleavage of PrP in SMB cells; assay type: cell-based, mouse
[4] = system: C1 production in SMB cells; assay type: cell-based, mouse
[5] = system: SMB cells
[6] = system: prion replication in SMB cells; conditions: mouse, in vivo

calpastatin
levels of C2 lower than control transfected cells [1]: 64±15%

CC(=O)N[C@@H](CC(C)C)C(=O)N[C@@H](CC(C)C)C(=O)N[C@H](C=O)CCCNC(=N)N [leupeptin]
PrP^Sc accumulation in ScN2a cells [2]: affected PrP^Sc accumulation

Z-FG-NHO-BzOME [cathepsin inhibitor III]
effect on production of C2 [1]: unaffected

CNc1ccc2oc(C[C@H]3O[C@@]4(CC[C@H]3C)O[C@H]([C@H](C)C(=O)c3ccc[nH]3)[C@H](C)C[C@H]4C)nc2c1C(=O)O [A23187]
increase of C2 [3]: 3.5 fold

Cbz-Leu-Leu-Tyr-CH2F [calpain inhibitor IV]
C1 levels [4]: C1 levels declined | C1 levels higher than control treated SMB cells [4]: ~2 fold | effect on production of C2 [1]: apparently complete elimination of C2 | IC50 [1]: 450 nM | cell toxicity / cell survival [5]: cell toxicity is not triggered

C[C@H](CCC(=O)O)C[C@H](C)C[C@H](C)C(=O)/C=C(\O)[C@H](C)C[C@H](C)C/C=C/[C@@H](C)[C@@H](O)[C@@H](C)[C@@H](O)C[C@@H]1CC[C@@](C)([C@H]2CC[C@@](C)([C@@H](C)O)O2)O1 [ionomycin]
increase in C2 levels compared to control [3]: ~7 fold

Z-FY(t-Bu)-DMK [cathepsin L inhibitor III]
effect on production of C2 [1]: unaffected

CC(C)[C@H](NC(=O)OCc1ccccc1)C(=O)N[C@H](C=O)Cc1ccccc1 [MDL28170, Carbobenzoxy-valinyl-phenylalaninal] (Cbz-Val-Phe-aldehyde)
C1 levels [4]: increased to levels similar to calpain inhibitor IV-treated SMB cells | C2 by immunoblotting [1]: undetectable | reduction in C2 [1]: 63±19.7% and 75±6.8% | IC50 ([1]; Mus musculus, SMB): ~4000 nM | prion titers in treated SMB cells [6]: reduced prion titers | cell toxicity / cell survival [5]: cell toxicity is not triggered

CCCC[C@@H](C=O)NC(=O)[C@H](CC(C)C)NC(=O)OCc1ccccc1 [calpeptin, Benzyloxycarbonylleucyl-norleucinal]
reduction in C2 [1]: 71±7.1% | cell toxicity / cell survival [5]: cell toxicity is not triggered
